Patent US9073821B2, “Hydroxamic acid derivative” (priority 2010, dated 2015)
Values after ≈ are worked out from the molar mass of the structure shown.

molecular target: Pseudomonas aeruginosa LpxC enzyme (Pseudomonas aeruginosa (strain ATCC 15692 / DSM 22644 / CIP 104116 / JCM 14847 / LMG 12228 / 1C / PRS 101 / PAO1), UniProt P47205); assay: biochemical; format: biochemical; settings: Table 1; read-out: Pseudomonas aeruginosa LpxC IC50

SMILES	IC50 [nM]
CNC(=O)C(C(=O)NO)N(C)C(=O)c1ccc(-c2ccccc2)cc1 (centres unmarked) [Compound 1, 2-[(Biphenyl-4-ylcarbonyl)(methyl)amino]-N-hydroxy-N′-methylpropanediamide]	7.7

same assay, conditions: class symbols A/B/C by IC50; Table 3; read-out: Enzyme inhibitory activity (inhibitory activity on Pseudomonas aeruginosa LpxC enzyme)

SMILES	IC50 [nM]
CCOC1CN(Cc2ccc(C#Cc3ccc(C(=O)N(C)C(C(=O)NC)C(=O)NO)cc3)cc2C(F)(F)F)C1 (centres unmarked) [Compound 573, 2-[{[4-({4-[(3-ethoxyazetidin-1-yl)methyl]-3-(trifluoromethyl)phenyl}ethynyl)phenyl]carbonyl}(methyl)amino]-N-hydroxy-N′-methylpropanediamide]	< 10
CCOC1CN(Cc2ccc(C#Cc3ccc(C(=O)N(C)C(C(=O)NC)C(=O)NO)cc3)cc2Cl)C1 (centres unmarked) [Compound 579, 2-[{[4-({3-chloro-4-[(3-ethoxyazetidin-1-yl)methyl]phenyl}ethynyl)phenyl]carbonyl}(methyl)amino]-N-hydroxy-N′-methylpropanediamide]	< 10
CNC(=O)[C@@](C)(C(=O)NO)N(C)C(=O)c1ccc(C#Cc2coc(CN3CCCOCC3)c2)cc1 [Compound 583, (2S)-N-hydroxy-N′,2-dimethyl-2-{methyl[(4-{[5-(1,4-oxazepan-4-ylmethyl)furan-3-yl]ethynyl}phenyl)carbonyl]amino}propanediamide]	< 10
CCOC1CN(Cc2cc(C#Cc3ccc(C(=O)N(C)[C@@](C)(C(=O)NC)C(=O)NO)cc3)co2)C1 [Compound 584, (2S)-2-[{[4-({5-[(3-ethoxyazetidin-1-yl)methyl]furan-3-yl}ethynyl)phenyl]carbonyl}(methyl)amino]-N-hydroxy-N′,2-dimethylpropanediamide]	< 10
CNC(=O)[C@@](C)(C(=O)NO)N(C)C(=O)c1ccc(C#Cc2csc(C)n2)cc1 [Compound 586, (2S)-N-hydroxy-N′,2-dimethyl-2-[methyl({4-[(2-methyl-1,3-thiazol-4-yl)ethynyl]phenyl}carbonyl)amino]propanediamide]	10 to 100
CCOCc1cc(C#Cc2ccc(C(=O)N(C)[C@@](C)(C(=O)NC)C(=O)NO)cc2)co1 [Compound 612, (2S)-2-[(4-{[5-(ethoxymethyl)furan-3-yl]ethynyl}benzoyl)(methyl)amino]-N-hydroxy-N′,2-dimethylpropanediamide]	< 10
CNC(=O)[C@@](C)(C(=O)NO)N(C)C(=O)c1ccc(C#Cc2coc(CO)c2)cc1 [Compound 616, (2S)-N-hydroxy-2-[(4-{[5-(hydroxymethyl)furan-3-yl]ethynyl}benzoyl)(methyl)amino]-N′,2-dimethylpropanediamide]	< 10

Second part, the compound after the results:

IC50 [nM]	SMILES
< 10	CCOC1CN(Cc2ccc(C#Cc3ccc(C(=O)N(C)C(C(=O)NC)C(=O)NO)cc3)c(C)c2)C1 (centres unmarked) [Compound 568, 2-[{[4-({4-[(3-ethoxyazetidin-1-yl)methyl]-2-methylphenyl}ethynyl)phenyl]carbonyl}(methyl)amino]-N-hydroxy-N′-methylpropanediamide]
10 to 100	CCOC1CN(Cc2ccc(C#Cc3ccc(C(=O)N(C)C(C(=O)NC)C(=O)NO)cc3)cc2OC)C1 (centres unmarked) [Compound 572, 2-[{[4-({4-[(3-ethoxyazetidin-1-yl)methyl]-3-methoxyphenyl}ethynyl)phenyl]carbonyl}(methyl)amino]-N-hydroxy-N′-methylpropanediamide]
< 10	CCOC1CN(Cc2ccc(C#Cc3ccc(C(=O)N(C)C(C(=O)NC)C(=O)NO)cc3)c(C(F)(F)F)c2)C1 (centres unmarked) [Compound 574, 2-[{[4-({4-[(3-ethoxyazetidin-1-yl)methyl]-2-(trifluoromethyl)phenyl}ethynyl)phenyl]carbonyl}(methyl)amino]-N-hydroxy-N′-methylpropanediamide]
< 10	CNC(=O)[C@@](C)(C(=O)NO)N(C)C(=O)c1ccc(C#Cc2coc(C)n2)cc1 [Compound 575, (2S)-N-hydroxy-N′,2-dimethyl-2-[methyl({4-[(2-methyl-1,3-oxazol-4-yl)ethynyl]phenyl}carbonyl)amino]propanediamide]
< 10	CNC(=O)[C@@](C)(C(=O)NO)N(C)C(=O)c1ccc(C#Cc2cc(C)on2)cc1 [Compound 576, (2S)-N-hydroxy-N′,2-dimethyl-2-[methyl({4-[(5-methyl-1,2-oxazol-3-yl)ethynyl]phenyl}carbonyl)amino]propanediamide]
< 10	CCOC1CN(Cc2ccc(C#Cc3ccc(C(=O)N(C)C(C(=O)NC)C(=O)NO)cc3)c(F)c2F)C1 (centres unmarked) [Compound 580, 2-[{[4-({4-[(3-ethoxyazetidin-1-yl)methyl]-2,3-difluorophenyl}ethynyl)phenyl]carbonyl}(methyl)amino]-N-hydroxy-N′-methylpropanediamide]
< 10	CCOC1CN(Cc2ccc(C#Cc3ccc(C(=O)N(C)C(C(=O)NC)C(=O)NO)cc3F)cc2)C1 (centres unmarked) [Compound 581, 2-[{[4-({4-[(3-ethoxyazetidin-1-yl)methyl]phenyl}ethynyl)-3-fluorophenyl]carbonyl}(methyl)amino]-N-hydroxy-N′-methylpropanediamide]
< 10	CCOC1CN(Cc2ccc(C#Cc3ccc(C(=O)N(C)C(C(=O)NC)C(=O)NO)cc3C)cc2)C1 (centres unmarked) [Compound 582, 2-[{[4-({4-[(3-ethoxyazetidin-1-yl)methyl]phenyl}ethynyl)-3-methylphenyl]carbonyl}(methyl)amino]-N-hydroxy-N′-methylpropanediamide]
< 10	CNC(=O)[C@@](C)(C(=O)NO)N(C)C(=O)c1ccc(C#C/C=C/C2CCOCC2)cc1 [Compound 590, (2S)-N-hydroxy-N′,2-dimethyl-2-(methyl {4-[(3E)-4-(tetrahydro-2H-pyran-4-yl)but-3-en-1-yn-1-yl]benzoyl}amino)propanediamide]
< 10	CNC(=O)[C@@](C)(C(=O)NO)N(C)C(=O)c1ccc(C#Cc2coc(CN3CCOCC3)c2)cc1 [Compound 592, (2S)-N-hydroxy-N′,2-dimethyl-2-[methyl(4-{[5-(morpholin-4-ylmethyl)furan-3-yl]ethynyl}benzoyl)amino]propanediamide]
< 10	CNC(=O)[C@@](C)(C(=O)NO)N(C)C(=O)c1ccc(C#C/C=C/C2CC2COC)cc1 (stereo partly drawn) [Compound 596, (2S)-N-hydroxy-2-[(4-{(3E)-4-[2-(methoxymethyl)cyclopropyl]but-3-en-1-yn-1-yl}benzoyl)(methyl)amino]-N′,2-dimethylpropanediamide]
< 10	CNC(=O)[C@@](C)(C(=O)NO)N(C)C(=O)c1ccc(C#C/C=C/CCCOC)cc1 [Compound 597, (2S)-N-hydroxy-2-[{4-[(3E)-7-methoxyhept-3-en-1-yn-1-yl]benzoyl}(methyl)amino]-N′,2-dimethylpropanediamide]

test system: Pseudomonas aeruginosa strain TS88 (clinical isolate); assay: Antimicrobial activity, MIC by broth microdilution; format: cell-based; settings: Table 1, 35° C., 18 hours, read-out: MIC Pseudomonas aeruginosa TS88 strain
From the text: Test 3: Evaluation of Antimicrobial Activity For minimum inhibitory concentration (MIC) measurement, the following broth microdilution method was applied as adapted from the standard procedure recommended by the CLSI (Clinical and Laboratory Standards Institute). The bacteria used were Pseudomonas aeruginosa strain TS88 (clinical isolate), E. coli strain ATCC25922, and Klebsiella pneumoniae strain ATCC13883. After culture overnight on a heart infusion agar medium, the cells of a test bacterium were scraped off and suspended to give a turbidity of level 0.5 on the McFarland scale; the suspension was then diluted 10 fold to prepare an inoculum solution. A 0.005 mL aliquot of the inoculum solution was inoculated in a cation-adjusted Mueller-Hinton broth medium containing a test compound and cultured at 35° C. for 18 hours. A minimum drug concentration at which no cell growth was visible to the naked eye was designated as MIC.

SMILES	MIC [µg/mL]
CNC(=O)C(C(=O)NO)N(C)C(=O)c1ccc(-c2ccccc2)cc1 (centres unmarked) [Compound 1, 2-[(Biphenyl-4-ylcarbonyl)(methyl)amino]-N-hydroxy-N′-methylpropanediamide]	0.5 (≈ 1.46 µM)
CNC(=O)C(C(=O)NO)N(C)C(=O)c1ccc(-c2ccc(OCCCN3CCOCC3)cc2)cc1 (centres unmarked) [Compound 7, N-hydroxy-N′-methyl-2-[methyl({4′-[3-(morpholin-4-yl)propoxy]biphenyl-4-yl}carbonyl)amino]propanediamide]	2 (≈ 4.13 µM)
CNC(=O)C(C(=O)NO)N(C)C(=O)c1ccc(-c2ccc(OCCCN3CCOCC3)cc2)cc1.Cc1ccc(S(=O)(=O)O)cc1 (centres unmarked) [Compound 7b, N-hydroxy-N′-methyl-2-[methyl({4′-[3-(morpholin-4-yl)propoxy]biphenyl-4-yl}carbonyl)amino]propanediamide 4-methylbenzenesulfonate]	2
